Common to all, as to assay type: functional
The subject of experiment [1] is Rattus norvegicus. Briefly: Hepatoprotective activity against thioacetamide-induced toxicity in rats at a dose of 6 mg/Kg dose (p.o. x 7 days), expressed as % protection afforded in serum bilirubin levels.
In experiment [2] the test system is Rattus norvegicus. In words: Hepatoprotective activity against thioacetamide-induced toxicity in rats at a dose of 6 mg/Kg dose (p.o. x 7 days), expressed as % protection afforded in glutamate oxaloacetate transaminase (GOT) levels.
The test system of experiment [3] is Rattus norvegicus. Briefly: Hepatoprotective activity against thioacetamide-induced toxicity in rats at a dose of 6 mg/Kg dose (p.o. x 7 days) expressed as % protection afforded in […] (ALP) levels.
For experiment [4], the system named is Rattus norvegicus. In words: Hepatoprotective activity against thioacetamide-induced toxicity in rats at a dose of 6 mg/Kg dose (p.o. x 7 days), expressed as % protection afforded in glutamate pyruvate transaminase (GPT) levels.
Experiment [5] has as its system Rattus norvegicus. Briefly: Hepatoprotective activity against thioacetamide-induced toxicity in rats at a dose of 6 mg/Kg dose (p.o. x 7 days), expressed as % protection afforded in […] (ALP) levels.

SILYMARIN: the Protection was 61% in the experiment on Rattus norvegicus [1], 50% in the experiment with Rattus norvegicus [2], 47% with Rattus norvegicus [3] and 47% in the experiment on Rattus norvegicus [4].

Turning to `CC/N=C(/S)N1CCn2c1c(C#N)c(=O)n(CC)c2=S`, the Protection came out at 60% in the experiment with Rattus norvegicus [1], 31% with Rattus norvegicus [2], 56% in the experiment with Rattus norvegicus [3] and 70% with Rattus norvegicus [4].

Consider `CCN1C(=O)C2C(=O)N(CC)C(=S)N3CCN(C1=S)C23` (stereo unspecified), for which the Protection was determined as 31% in the experiment with Rattus norvegicus [1], 20% in the experiment with Rattus norvegicus [2], 22% with Rattus norvegicus [3] and 34% in the experiment with Rattus norvegicus [4].

Regarding `CCN1C(=N)C2C(=O)N(CC)C(=S)N3CCCN(C1=S)C23` (stereo unspecified), the Protection stood at 50% with Rattus norvegicus [1], 40% with Rattus norvegicus [2], 48% in the experiment on Rattus norvegicus [3] and 50% in the experiment with Rattus norvegicus [4].

In the case of `CCN1C(=N)C2C(=O)N(CC)C(=S)N3CCN(C1=S)C23` (stereo unspecified), the Protection turned out to be 57% in the experiment on Rattus norvegicus [1], 50% with Rattus norvegicus [2], 17% in the experiment on Rattus norvegicus [3] and 87% in the experiment with Rattus norvegicus [4].

Consider `O=C1C2C(=O)N(c3ccccc3)C(=S)N3CCN(C(=S)N1c1ccccc1)C23` (stereo unspecified), for which the Protection with Rattus norvegicus [1] came to 25%; with Rattus norvegicus [2], 27%; in the experiment with Rattus norvegicus [3], 20%; with Rattus norvegicus [4], 18%.

For `Cc1ccccc1N1C(=O)C2C(=O)N(c3ccccc3C)C(=O)N3CCN(C1=O)C23` (stereo unspecified), the Protection was 18% in the experiment on Rattus norvegicus [1], 18% in the experiment on Rattus norvegicus [2], 16% with Rattus norvegicus [3] and 15% with Rattus norvegicus [4].

With `CCO/C(O)=C(\C1=NCCN1)c1nnc(N)s1`, the Protection in the experiment on Rattus norvegicus [1] is listed as 53%; with Rattus norvegicus [5], 19%; with Rattus norvegicus [2] it was 33%; in the experiment on Rattus norvegicus [4], 51%.

Consider `CCO/C(O)=C(\C1=NCCCN1)c1nnc(N)s1`, for which the Protection with Rattus norvegicus [1] came to 22%; in the experiment with Rattus norvegicus [2], 26%; in the experiment with Rattus norvegicus [3], 38%; in the experiment on Rattus norvegicus [4], 50%.
